Measured values from publication PMC10786919, “Design-rules for stapled peptides with in vivo activity and their application to Mdm2/X antagonists” (Nature Communications, 2024).
Values after ≈ are worked out from the molar mass of the structure shown. Like-named read-outs stand apart in the source and are kept apart here. Positions of bridges follow the written chain, without caps; N, C: chain ends. Non-standard residues stand in square brackets, D forms with d. Residues, ends and D or L forms follow the SMILES beside them. Lys(N3) = [N-]=[N+]=NCCCC[C@H](N)C(=O)O; R8 = C=CCCCCCC[C@@](C)(N)C(=O)O; Cba = N[C@@H](CC1CCC1)C(=O)O; S5 = C=CCCC[C@](C)(N)C(=O)O; βAla = NCCC(=O)O

Experiments:
[1] = Solubility assay (kinetic solubility, PBS pH 7); assay type: physicochemical; details: pH 7, aqueous buffer, kinetic from dmso stock, pH 7, PBS; read-out: Solubility
Summary of the method: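 Reference standards were made by diluting the 10 mM stock to 100 µM in acetonitrile:methanol:DMSO 10:80:10. Solubility in µM was calculated as the sample peak area divided by the standard peak area, multiplied by the standard concentration.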

[2] = Experimental LogD (partition coefficient); details: not stated, Partition Coeff LogD
[3] = Nanoclick permeability assay
Summary of the method: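 Azido-peptide permeability was read as loss of NanoBRET signal (donor 450 nm, acceptor 610 nm) after adding NanoBret618-azide at 10 μM final.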

HCT116 cells = test: Lactate dehydrogenase (LDH) release assay; assay type: cell-based
Summary of the method: (§1)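 LDH release, fluorometric membrane-integrity read-out; HCT116 with stable p53-responsive β-lactamase reporter; 8000 cells/well; 0.5% DMSO final; geometric mean, n≥3 biological replicates.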

[4] = Lactate dehydrogenase (LDH) release assay; assay type: cell-based
Summary of the method: as §1

[5] = 0% FBS 4Hr, read-out: LDH: Cytotoxicity assay EC50
[6] = 4 hours, 0% serum, read-out: LDH Cytotoxicity assay EC50
[7] = 10% FBS 4Hr, read-out: LDH: Cytotoxicity assay EC50

Structure (SMILES) | solubility kinetic [1] [µM] | logD [2] | cell entry EC50 [3] [nM] | EPSA (physchem) [A^2] | LDH: Cytotoxicity assay % Effect (HCT116 cells; 0% FBS 4Hr) [%] | LDH: Cytotoxicity assay % Effect (HCT116 cells; 0% FBS 16Hr) [%] | EC50 [4, 5] [nM] | EC50 [4, 6] [nM] | LDH: Cytotoxicity assay % Effect (HCT116 cells; 10% FBS 4Hr) [%] | EC50 [4, 7] [nM]
CC(=O)N[C@@H](CCCCN=[N+]=[N-])C(=O)NCCC(=O)N[C@@H](CC(C)C)C(=O)N[C@@H](C)C(=O)N[C@@H](Cc1ccccc1)C(=O)N[C@]1(C)CCCCCCC=CCCC[C@@](C)(C(=O)N[C@@H](C)C(=O)N[C@@H](C)C(=O)N[C@@H](C)C(N)=O)NC(=O)[C@H](CC2CCC2)NC(=O)[C@H](CCC(N)=O)NC(=O)[C@H](C)NC(=O)[C@H](Cc2c[nH]c3ccccc23)NC(=O)[C@H](Cc2ccc(O)cc2)NC(=O)[C@H](CCC(=O)O)NC1=O [MP-963, AZIDE-ATSP-7041 (T2A,S12A)] (Ac-[Lys(N3)][βAla]LAF[R8]EYWAQ[Cba][S5]AAA-NH2; staple 6-13) | 100 (≈ 192 µg/mL) | 2.97 | 177 | 220 | 11.69 | -0.52 | > 50000 | – | – | –
CC(=O)N[C@@H](CCCCN=[N+]=[N-])C(=O)NCCC(=O)N[C@@H](CC(C)C)C(=O)N[C@H](C(=O)N[C@@H](Cc1ccccc1)C(=O)N[C@]1(C)CCCCCCC=CCCC[C@@](C)(C(=O)N[C@@H](CO)C(=O)N[C@@H](C)C(=O)N[C@@H](C)C(N)=O)NC(=O)[C@H](CC2CCC2)NC(=O)[C@H](CCC(N)=O)NC(=O)[C@H](C)NC(=O)[C@H](Cc2c[nH]c3ccccc23)NC(=O)[C@H](Cc2ccc(O)cc2)NC(=O)[C@H](CCCCN)NC1=O)[C@@H](C)O [MP-548, AZIDE-ATSP-7041 (E5K)] | 5 (≈ 9.85 µg/mL) | 3.25 | 1020 | 213 | 84.33 | 14.03 | 12300 | 12200 | – | –
CC(=O)N[C@@H](CCCCN=[N+]=[N-])C(=O)NCCC(=O)N[C@@H](CCCCN)C(=O)N[C@H](C(=O)N[C@@H](Cc1ccccc1)C(=O)N[C@]1(C)CCCCCCC=CCCC[C@@](C)(C(=O)N[C@@H](CO)C(=O)N[C@@H](C)C(=O)N[C@@H](C)C(N)=O)NC(=O)[C@H](CC2CCC2)NC(=O)[C@H](CCC(N)=O)NC(=O)[C@H](C)NC(=O)[C@H](Cc2c[nH]c3ccccc23)NC(=O)[C@H](Cc2ccc(O)cc2)NC(=O)[C@H](CCC(=O)O)NC1=O)[C@@H](C)O [MP-546, AZIDE-ATSP-7041 (L1K)] | 2 (≈ 3.97 µg/mL) | 2.85 | 210 | 229 | 34.42 | 13.56 | > 50000 | – | – | –
CC(=O)N[C@@H](CCCCN=[N+]=[N-])C(=O)NCCC(=O)N[C@@H](C)C(=O)N[C@H](C(=O)N[C@@H](Cc1ccccc1)C(=O)N[C@]1(C)CCCCCCC=CCCC[C@@](C)(C(=O)N[C@@H](CO)C(=O)N[C@@H](C)C(=O)N[C@@H](C)C(N)=O)NC(=O)[C@H](CC2CCC2)NC(=O)[C@H](CCC(N)=O)NC(=O)[C@H](C)NC(=O)[C@H](Cc2c[nH]c3ccccc23)NC(=O)[C@H](Cc2ccc(O)cc2)NC(=O)[C@H](CCC(=O)O)NC1=O)[C@@H](C)O [MP-952, AZIDE-ATSP-7041 (L1A)] | 109 (≈ 210 µg/mL) | 2.73 | 192 | 223 | 11.9 | 8.95 | > 50000 | – | – | –
CC(=O)N[C@@H](CCCCN=[N+]=[N-])C(=O)NCCC(=O)N[C@@H](C)C(=O)N[C@@H](C)C(=O)N[C@@H](Cc1ccccc1)C(=O)N[C@]1(C)CCCCCCC=CCCC[C@@](C)(C(=O)N[C@@H](CO)C(=O)N[C@@H](C)C(=O)N[C@@H](C)C(N)=O)NC(=O)[C@H](CC2CCC2)NC(=O)[C@H](CCC(N)=O)NC(=O)[C@H](C)NC(=O)[C@H](Cc2c[nH]c3ccccc23)NC(=O)[C@H](Cc2ccc(O)cc2)NC(=O)[C@H](CCC(=O)O)NC1=O [MP-957, AZIDE-ATSP-7041 (L1A,T2A)] (Ac-[Lys(N3)][βAla]AAF[R8]EYWAQ[Cba][S5]SAA-NH2; staple 6-13) | 101 (≈ 192 µg/mL) | 2.69 | 125 | 226 | 25.16 | – | 17100 | 17100 | – | –
CC(=O)N[C@@H](CCCCN=[N+]=[N-])C(=O)NCCC(=O)N[C@@H](CC(C)C)C(=O)N[C@H](C(=O)N[C@@H](Cc1ccccc1)C(=O)N[C@]1(C)CCCCCCC=CCCC[C@@](C)(C(=O)N[C@@H](CO)C(=O)N[C@@H](C)C(=O)N[C@@H](C)C(N)=O)NC(=O)[C@H](CC2CCC2)NC(=O)[C@H](CCC(N)=O)NC(=O)[C@H](C)NC(=O)[C@H](Cc2c[nH]c3ccccc23)NC(=O)[C@H](Cc2ccc(O)cc2)NC(=O)[C@H](Cc2c[nH]cn2)NC1=O)[C@@H](C)O [MP-175, AZIDE-ATSP-7041 (E5H)] | 2 (≈ 3.96 µg/mL) | 3.42 | 316 | 214 | 2.645 | 7.95 | > 50000 | – | -1.124 | > 50000
CC(=O)N[C@@H](CCCCN=[N+]=[N-])C(=O)NCCC(=O)N[C@@H](CC(C)C)C(=O)N[C@@H](C)C(=O)N[C@@H](Cc1ccccc1)C(=O)N[C@]1(C)CCCCCCC=CCCC[C@@](C)(C(=O)N[C@@H](CO)C(=O)N[C@@H](C)C(=O)N[C@@H](C)C(N)=O)NC(=O)[C@H](CC2CCC2)NC(=O)[C@H](C)NC(=O)[C@H](C)NC(=O)[C@H](Cc2c[nH]c3ccccc23)NC(=O)[C@H](Cc2ccc(O)cc2)NC(=O)[C@H](CCC(=O)O)NC1=O [MP-962, AZIDE-ATSP-7041 (T2A,Q9A)] (Ac-[Lys(N3)][βAla]LAF[R8]EYWAA[Cba][S5]SAA-NH2; staple 6-13) | 77.5 (≈ 146 µg/mL) | 2.96 | 77.6 | 216 | 4.327 | – | > 50000 | – | – | –
CC(=O)N[C@@H](CCCCN=[N+]=[N-])C(=O)NCCC(=O)N[C@@H](CC(C)C)C(=O)N[C@H](C(=O)N[C@@H](Cc1ccccc1)C(=O)N[C@]1(C)CCCCCCC=CCCC[C@@](C)(C(=O)N[C@@H](C)C(=O)N[C@@H](C)C(=O)N[C@@H](C)C(N)=O)NC(=O)[C@H](CC2CCC2)NC(=O)[C@H](C)NC(=O)[C@H](C)NC(=O)[C@H](Cc2c[nH]c3ccccc23)NC(=O)[C@H](Cc2ccc(O)cc2)NC(=O)[C@H](CCC(=O)O)NC1=O)[C@@H](C)O [MP-8966, AZIDE-ATSP-7041 (Q9A,S12A)] (Ac-[Lys(N3)][βAla]LTF[R8]EYWAA[Cba][S5]AAA-NH2; staple 6-13) | 111 (≈ 211 µg/mL) | 2.92 | 202 | 215 | 5.4 | – | > 50000 | – | 4.079 | > 50000
CC(=O)N[C@@H](CCCCN=[N+]=[N-])C(=O)NCCC(=O)N[C@@H](C)C(=O)N[C@H](C(=O)N[C@@H](Cc1ccccc1)C(=O)N[C@]1(C)CCCCCCC=CCCC[C@@](C)(C(=O)N[C@@H](C)C(=O)N[C@@H](C)C(=O)N[C@@H](C)C(N)=O)NC(=O)[C@H](CC2CCC2)NC(=O)[C@H](CCC(N)=O)NC(=O)[C@H](C)NC(=O)[C@H](Cc2c[nH]c3ccccc23)NC(=O)[C@H](Cc2ccc(O)cc2)NC(=O)[C@H](CCC(=O)O)NC1=O)[C@@H](C)O [MP-960, AZIDE-ATSP-7041 (L1A,S12A)] (Ac-[Lys(N3)][βAla]ATF[R8]EYWAQ[Cba][S5]AAA-NH2; staple 6-13) | 102 (≈ 194 µg/mL) | 2.76 | 286 | 221 | 17.36 | – | > 50000 | – | – | –
CC(=O)N[C@@H](CCCCN=[N+]=[N-])C(=O)NCCC(=O)N[C@@H](CC(C)C)C(=O)N[C@H](C(=O)N[C@@H](Cc1ccccc1)C(=O)N[C@]1(C)CCCCCCC=CCCC[C@@](C)(C(=O)N[C@@H](CO)C(=O)N[C@@H](C)C(=O)N[C@@H](C)C(N)=O)NC(=O)[C@H](CC2CCC2)NC(=O)[C@H](CCCCN)NC(=O)[C@H](C)NC(=O)[C@H](Cc2c[nH]c3ccccc23)NC(=O)[C@H](Cc2ccc(O)cc2)NC(=O)[C@H](CCC(=O)O)NC1=O)[C@@H](C)O [MP-550, AZIDE-ATSP-7041 (Q9K)] | 4 (≈ 7.88 µg/mL) | 3.08 | 437 | 217 | 7.145 | 4.1 | > 50000 | – | – | –
